# Measurements published in US6056966A, “Method and compositions for treating impotence” (Baker Norton Pharmaceuticals, Inc., priority 1998, dated 2000).
# Entries after “also recorded” stand apart in the source; their conditions may differ.
# Assays:
# guinea pig penis = experiment: Topical application of nitrates to the penis of guinea pigs (change in penile volume); type: in vivo, male outbred Hartley guinea pigs; details: for AUC / AUC, % of 1,5-PDN / Peak Effect (% change) / Peak Effect, % of 1,5-PDN / Time of Peak Effect: guinea pig, in vivo
# From the text: Sixteen (16) male outbred Hartley guinea pigs were weighed and placed into treatment groups as follows:
# The animals were placed in dorsal recumbency and held in place by restraints. The penis was extruded from the prepuce. Care was taken to not manipulate the penis. Length and diameter measurements were made using digital calipers. The length measurement was taken from the prepuce to the tip of the glans when the penis was extended. The diameter was taken 0.5 cm proximally from the tip of the glans.
# The appropriate amount of test material was applied with a Wiretrol™ pipette to the base of the exposed penis. When application was complete, a timer was started. Measurements were taken at 0, 1, 2, 5, 10 and 15 minutes after application or until detumescence was observed.
# The same procedure was followed to topically apply a series of various other nitrate and dinitrate compounds (in neat form) to the penis of guinea pigs. A summary of the activity of this series of nitrate compounds is shown in Table 2, with the AUC and peak effect values for each compound compared to 1,5-PDN.
# The same test procedure was followed as in Example 3, but applying a 10% solution of NTG to the penis in varying dosage amounts.
# Twelve (12) male Hartley guinea pigs were placed into treatment groups as follows: […]
# corpus cavernosum = experiment: Intracavernosal injection in anesthetized rats (cavernosal and arterial blood pressure)
# [1] = Intravenous injection of NTG vs. 1,5-pentane dinitrate in conscious rats (mean arterial blood pressure); type: in vivo, rat; details: 30 μg
# Protocol: Rats (n=3) with indwelling catheters in the femoral artery for blood pressure measurements and vein for drug administration were given 1 dose of NTG (30 μg) and 6 doses of 1,5-PDN (30 μg-2000 μg) or vehicle (ethanol) in the conscious state. Changes in mean arterial blood pressure (diastolic blood pressure+1/3 (systolic-diastolic blood pressure)) were assessed after each dose of nitrate was given. About 0.5 hr to 1 hr separated the administration of each drug and dose.
# rat aortic rings = experiment: Vascular reactivity: relaxation of rat aortic rings precontracted with phenylephrine; type: cell-based, Sprague-Dawley rats; details: FIG. 11, rat aortic strips
# From the text: Aortic rings (2-3 mm wide) from Sprague-Dawley rats were isolated and placed in a tissue bath. The vessels were precontracted with small amounts of phenylephrine. A transducer connected to a recorder was used to assess changes in tension. As noted in FIG. 10, there was no difference in vascular relaxation, either in potency or efficacy, between 1,5-PDN and 1,5-pentane dinitrite.
# penis = details: cited from earlier work
# penile smooth muscle = details: cited from earlier work
SMILES,AUC (guinea pig penis),"AUC, % of 1,5-PDN (guinea pig penis) [%]",Peak Effect (% change) (guinea pig penis),"Peak Effect, % of 1,5-PDN (guinea pig penis) [%]",Time of Peak Effect (guinea pig penis) [min],other results
C=CCCCO[N+](=O)[O-] [1-Pentene-5-nitrate],309,70,35.4,91,2,
CC(C)=CCO[N+](=O)[O-] [2-Methyl-2-butene-4-nitrate],305,69,32.6,84,5,
CCCC(C)O[N+](=O)[O-] (centres unmarked) [2-Pentane nitrate],323,73,36.0,93,5,
O=[N+]([O-])OC1CCCC1 [Cyclopentyl nitrate],380,86,31.8,,10,
CC(C)CCO[N+](=O)[O-] [Isoamyl nitrate],309,70,40.3,104,2,
CC(C)CO[N+](=O)[O-] [Isobutyl nitrate],367,,38.1,,2,
"O=[N+]([O-])OCC(CO[N+](=O)[O-])O[N+](=O)[O-] [NTG, nitroglycerin]",,,,,,"change in intracavernosal pressure (corpus cavernosum; anesthetized rats, FIGS. 6-8): relatively small, dose-dependent increases in intracavernosal pressure; effect on systemic arterial blood pressure (corpus cavernosum; anesthetized rats, FIGS. 6-8): almost equivalent systemic (""downstream"") reductions in arterial blood pressure; systemic reduction in arterial blood pressure (corpus cavernosum; at the highest dose used): over 30 mmHg; effect on penile volume (guinea pig penis; topical, FIGS. 1-3, 1,5-PDN vs saline, 10% NTG solution vs 1,5-PDN): minimal effect on penis volume as compared to 1,5-PDN; decrease in arterial pressure [1]: ~25%; vascular relaxation: NTG vs 1,5-PDN (rat aortic rings): no appreciable difference in the vascular relaxation; patients with erections sufficient for vaginal penetration (penis; at home): 30 % of patients; patients with some response (penis; in vivo): 71 % of patients; headache, systemic blood pressure (penile smooth muscle; in vivo): headaches were a common occurrence; also recorded: decrease in systemic blood pressure and development of headache; relaxation of penile smooth muscle and vascular tissue (penile smooth muscle; in vivo): causes relaxation of penile smooth muscle and vascular tissue, including cavernosal tissue; response compared with papaverine or placebo (penile smooth muscle; only one trial): better than papaverine, another vasodilator, or placebo"
